Source: US7652061B2, “N-acyl nitrogen heterocycles as ligands of peroxisome proliferator-activated receptors” (Novartis A.G., priority 2003, dated 2010)

Assays:
[1] = biological target: T1, hPPARγ ligand binding domain (GST-hPPARγ LBD) (Homo sapiens, UniProt P37231); test: PPARγ functional binding assay (CARLA, TR-FRET); format: biochemical; details: SRC-1 peptide recruitment, 3 hours at RT, read-out: EC50 in the PPARγ receptor binding assay
T1 construct: GST-hPPARγ LBD (amino acids 175-476); made in house; host or cells: E. coli BL21(DE3), pGEX vector
T1 sequence (P37231 175-476 isoform P37231-2): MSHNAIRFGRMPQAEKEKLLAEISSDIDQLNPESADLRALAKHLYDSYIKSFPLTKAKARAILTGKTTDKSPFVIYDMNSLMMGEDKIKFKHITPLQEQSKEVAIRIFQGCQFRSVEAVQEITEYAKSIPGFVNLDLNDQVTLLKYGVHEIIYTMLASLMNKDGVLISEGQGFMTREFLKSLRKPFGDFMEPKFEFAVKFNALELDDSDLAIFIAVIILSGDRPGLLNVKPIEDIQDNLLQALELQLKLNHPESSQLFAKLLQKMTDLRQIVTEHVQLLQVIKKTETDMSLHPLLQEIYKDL
Procedure: (§1) The in vitro functional binding to the PPARα, PPARδ and PPARγ receptors is determined as follows:
(§2) The functional binding assays for the PPARα, PPARδ and PPARγ receptors are a variation of the coactivator-dependent receptor ligand assay (CARLA) (see Krey et al., “Fatty Acids, Eicosanoids, and Hypolipidemic Agents Identified as Ligands of Peroxisome Proliferator-Activated Receptors by Coactivator-Dependent Receptor Ligand Assay”, Molecular Endocrinology, Vol. 11, pp. 779-791 (1997)). The present CARLA assays use a TR-FRET detection method previously reviewed (see Hemmila, “LANCE: Homogeneous Assay Plafform for HTS”, J. Biomol. Screening, Vol. 4, pp. 303-307 (1999); Mathis, “HTRF Technology”, J. Biomol. Screening, Vol. 4, pp. 309-313 (1999)). […] This brings the Eu-labeled anti-GST antibody and the strepavidin-labeled APC in close proximity, thereby facilitating fluorescence energy transfer. […] After mixing all components, the reaction mixture stands for 3 hours at RT before reading the TR-FRET (Time-Resolved Fluorescence Resonance Energy Transfer) signal on a Wallac Victor 2 plate reader (measuring the ratio of signals at […]). […]

[2] = biological target: T2, hPPARα ligand binding domain (GST-hPPARα LBD) (Homo sapiens, UniProt Q07869); test: PPARα functional binding assay (CARLA, TR-FRET); format: biochemical; details: SRC-1 peptide recruitment, 3 hours at RT, read-out: EC50 in the PPARα receptor binding assay
T2 construct: made in house; host or cells: E. coli BL21(DE3), pGEX vector
T2 sequence (Q07869 167-468): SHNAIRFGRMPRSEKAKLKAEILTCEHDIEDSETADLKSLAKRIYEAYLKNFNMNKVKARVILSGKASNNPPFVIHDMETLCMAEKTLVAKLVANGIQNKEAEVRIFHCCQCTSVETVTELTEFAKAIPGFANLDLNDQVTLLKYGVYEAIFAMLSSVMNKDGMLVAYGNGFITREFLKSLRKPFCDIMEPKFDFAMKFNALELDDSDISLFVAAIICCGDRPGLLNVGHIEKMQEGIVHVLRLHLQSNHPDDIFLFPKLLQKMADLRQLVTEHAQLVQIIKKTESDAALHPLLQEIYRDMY
Procedure: as §1, §2

Question: Which EC50 [1] does the source give for `Cc1oc(-c2ccc(Cl)c(F)c2)nc1COc1cccc(C(C)(C)C(=O)N2CCC[C@@H]2C(=O)O)c1` [Example 9, (R)-1-(2-{3-[2-(4-Chloro-3-fluoro-phenyl)-5-methyl-oxazol-4-yl-methoxy]-phenyl}-2-methyl-propionyl)-pyrrolidine-2-carboxylic acid] here?
Answer: ~1800 nM

Question: What about the EC50 [2] of the same compound?
Answer: ~3 nM
